Where two headings read alike, the source gives them in different places.
How the values were obtained:
Type in all cases: cell-based
[1] = test system: S. marcescens; test: In vitro activity (geometric mean MIC, serial dilution); settings: Serratia marcescens; 16 strains; Mueller-Hinton agar, inoculum 10^4 dilution; MIC cutoff 200 mcg./ml.; read-out: Geometric Mean MIC
[2] = test system: S. pyogenes; test: as above; settings: Streptococcus pyogenes; 10 strains; Mueller-Hinton agar, inoculum 10^4 dilution; MIC cutoff 200 mcg./ml.
[3] = test system: Pr. rettgeri; test: In vitro antibacterial activity (Steers' agar dilution MIC); settings: Providencia rettgeri
[4] = test system: St. faecalis; test: as above; settings: Enterococcus faecalis, read-out: MIC
[5] = test system: S. aureus (Methicillin-R); test: In vitro activity (geometric mean MIC, serial dilution); settings: Staphylococcus aureus; 15 strains; Mueller-Hinton agar, inoculum 10^4 dilution; MIC cutoff 200 mcg./ml.
[6] = test system: S. aureus penicillinase+); test: as above; settings: Staphylococcus aureus, read-out: Geometric Mean MIC
[7] = test system: Providencia sp.; test: as above; settings: 5 strains, Mueller-Hinton agar, inoculum 10^4 dilution, MIC cutoff 200 mcg./ml., read-out: Geometric Mean MIC
[8] = test system: Proteus (indole +); test: as above; settings: 14 strains; Mueller-Hinton agar, inoculum 10^4 dilution; MIC cutoff 200 mcg./ml.; read-out: Geometric Mean MIC
[9] = test system: Enterobacter (sensitive); test: as above; settings: read-out: Geometric Mean MIC
[10] = test system: Enterobacter (Cephalosporinase +); test: as above; settings: 7 strains, Mueller-Hinton agar, inoculum 10^4 dilution, MIC cutoff 200 mcg./ml.
[11] = test system: Ps. aeruginosa; test: In vitro antibacterial activity (Steers' agar dilution MIC)
[12] = test system: Proteus (indole +, cephalosporinase +); test: In vitro activity (geometric mean MIC, serial dilution); settings: 5 strains; Mueller-Hinton agar, inoculum 10^4 dilution; MIC cutoff 200 mcg./ml.; read-out: Geometric Mean MIC
[13] = test system: Shig. dysenteriae; test: In vitro antibacterial activity (Steers' agar dilution MIC); settings: Shigella dysenteriae
[14] = test system: Pr. vulgaris; test: as above; settings: Proteus vulgaris, read-out: MIC
[15] = test system: Kl. pneumoniae; test: as above; settings: Klebsiella pneumoniae
Text: (§1) In vitro Antibacterial Activity of BB-S493 Compared with
(§2) BB-S479 and Cefamandole (Determined by Steers' Agar Dilu-
(§3) tion Method on Mueller-Hinton Agar Plate)
(§4) In vitro antibacterial activity of BB-S 525 compared with
(§5) BB-S 479 and cefamandole (determined by Steers' agar dilution
(§6) method on Mueller-Hinton agar plate)

[16] = test system: E. coli; test: as above; settings: Escherichia coli
Text: as §1, §2, §3, §4, §5, §6

[17] = test system: S. aureus; test: as above; settings: Staphylococcus aureus
Text: as §1, §2, §3, §4, §5, §6

[18] = test system: Sal. typhosa; test: as above
Text: as §1, §2, §3, §4, §5, §6

[19] = test system: Shig. flexneri; test: as above
Text: as §1, §2, §3, §4, §5, §6

[20] = test system: Shig. sonnei; test: as above; settings: Shigella sonnei
Text: as §1, §2, §3, §4, §5, §6

[21] = test system: B. anthracis; test: microbe, parasite or virus in culture; settings: Bacillus anthracis
[22] = test system: Enterob. cloacae; test: In vitro antibacterial activity (Steers' agar dilution MIC); settings: read-out: MIC
[23] = test system: D. pneumoniae; test: In vitro activity (geometric mean MIC, serial dilution); settings: Streptococcus pneumoniae; 9 strains; Mueller-Hinton agar, inoculum 10^4 dilution; MIC cutoff 200 mcg./ml.
[24] = test system: Sal. enteritidis; test: In vitro antibacterial activity (Steers' agar dilution MIC); settings: Salmonella enterica
[25] = test system: Serr. marcescens; test: as above; settings: Serratia marcescens

Measured: MIC

CNCc1ccccc1CC(=O)N[C@@H]1C(=O)N2C(C(=O)O)=C(CSc3ccc4nn(CC(=O)O)c(=O)n4n3)CS[C@H]12 [BB-S479, 7-[o-(Methylaminomethyl)phenylacetamido]-3-(2-carboxymethyl-2,3-dihydro-s-triazolo[4,3-b]pyridazin-3-on-6-ylthiomethyl)-3-cephem-4-carboxylic Acid]
0.5 µg/mL: [9]
12.5 µg/mL: [19]; Shigella flexneri, table 2 (BB-S493), Shig. flexneri A9684, read-out: MIC | [19]; table 4 (BB-S 525), Shig. flexneri | [25]; table 4 (BB-S 525), Serr. marcescens
> 100 µg/mL: [4]; table 4 (BB-S 525), St. faecalis | [11]; Pseudomonas aeruginosa, table 2 (BB-S493), Ps. aeruginosa A9843, read-out: MIC | [11]; table 2 (BB-S493), Ps. aerugionsa A9930 | [11]; table 4 (BB-S 525), Ps. aeruginosa, 1st line | [11]; table 4 (BB-S 525), Ps. aeruginosa, 2nd line
0.1 µg/mL: [3]; table 2 (BB-S493), Pr. rettgeri A15167 | [13]; table 4 (BB-S 525), Shig. dysenteriae | [14]; table 2 (BB-S493), Pr. vulgaris A9436 | [15]; table 2 (BB-S493), Kl. pneumoniae A9867 | [15]; table 2 (BB-S493), Kl. pneumoniae A9977 | [15]; table 2 (BB-S493), Kl. pneumoniae A15130 | [15]; table 4 (BB-S 525), Kl. pneumoniae, 2nd line | [16]; table 2 (BB-S493), E. coli A15810, read-out: MIC | [16]; table 2 (BB-S493), E. coli Juhl A15119, read-out: MIC | [16]; table 4 (BB-S 525), E. coli NIHJ, read-out: MIC | [16]; table 4 (BB-S 525), E. coli, strain not given, 1st line, read-out: MIC | [17]; table 2 (BB-S493), S. aureus A9497 | [18]; table 4 (BB-S 525), Sal. typhosa | [20]; table 4 (BB-S 525), Shig. sonnei | [24]; table 4 (BB-S 525), Sal. enteritidis
2.1 µg/mL: [10]
0.04 µg/mL: [2] | [23]
0.8 µg/mL: [3]; table 4 (BB-S 525), Pr. rettgeri | [14]; table 2 (BB-S493), Pr. vulgaris A9699 | [14]; table 4 (BB-S 525), Pr. vulgaris, 2nd line | [15]; table 4 (BB-S 525), Kl. pneumoniae, 1st line | [17]; table 4 (BB-S 525), S. aureus BX-1633
100 µg/mL: [4]; table 2 (BB-S493), St. faecalis A9536
0.4 µg/mL: [15]; table 2 (BB-S493), Kl. pneumoniae A9678 | [17]; table 2 (BB-S493), S. aureus BX-1633 A9606 | [17]; table 2 (BB-S493), S. aureus Smith A9537 | [17]; table 4 (BB-S 525), S. aureus Smith
0.025 µg/mL: [13]; table 2 (BB-S493), Shig dysenteriae | [20]; table 2 (BB-S493), Shig. sonnei A9516 | [21]; table 2 (BB-S493), B. anthracis A9504
4.8 µg/mL: [12]
3.1 µg/mL: [16]; ATCC8739, table 4 (BB-S 525), E. coli ATCC 8739 | [16]; table 2 (BB-S493), E. coli A15147, read-out: MIC | [16]; table 4 (BB-S 525), E. coli, strain not given, 3rd line, read-out: MIC | [22]; table 4 (BB-S 525), Enterob. cloacae
4.2 µg/mL: [7]
1.6 µg/mL: [22]; table 2 (BB-S493), Enterob. cloacae A9656
35 µg/mL: [1] | [5]
0.2 µg/mL: [8] | [14]; table 4 (BB-S 525), Pr. vulgaris, 1st line | [15]; table 4 (BB-S 525), Kl. pneumoniae, 3rd line | [15]; table 4 (BB-S 525), Kl. pnuemoniae, 4th line | [16]; table 2 (BB-S493), E. coli BX-1373, read-out: MIC | [16]; table 4 (BB-S 525), E. coli BX-1373, read-out: MIC | [16]; table 4 (BB-S 525), E. coli Juhl, read-out: MIC | [17]; table 4 (BB-S 525), S. aureus (strain not given) | [21]; table 4 (BB-S 525), B. anthracis
0.05 µg/mL: [16]; ATCC8739, table 2 (BB-S493), E. coli ATCC 8739, read-out: MIC | [16]; table 2 (BB-S493), E. coli A9660, read-out: MIC | [16]; table 2 (BB-S493), E. coli NIHJ, read-out: MIC | [16]; table 4 (BB-S 525), E. coli, strain not given, 2nd line, read-out: MIC | [18]; table 2 (BB-S493), Sal. typhosa A9498 | [24]; table 2 (BB-S493), Sal. enteritidis A9531
0.9 µg/mL: [6]
25 µg/mL: [25]; table 2 (BB-S493), Serr. marcescens A20019, read-out: MIC
